Biological target: Aβ42 (Homo sapiens, UniProt P05067)
Test: Th-T (thioflavin-T) assay of Aβ42 aggregation
Format: biochemical
Conditions: for Th-T fluorescence, mean of three wells: compound at 50

Sequence of Aβ42 (P05067 672-713): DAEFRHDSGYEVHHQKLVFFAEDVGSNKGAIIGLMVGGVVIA

For C=C1CCC2C(C)(CCC=C(C)C)C(O)CCC2(C)C1Cc1c(OC)oc(CO)c(C(=O)OC)c1=O (stereo not drawn) [Compound 13], the “Th-T fluorescence, mean of three wells” value (reading M54 of time course) was 0.4653, the “Th-T fluorescence, mean of three wells” value (reading M55 of time course) was 0.4661 and the “Th-T fluorescence, mean of three wells” value (reading M56 of time course) was 0.4654. The “Th-T fluorescence, mean of three wells” value (reading M57 of time course) was 0.4695, the “Th-T fluorescence, mean of three wells” value (reading M58 of time course) was 0.4698 and the “Th-T fluorescence, mean of three wells” value (reading M59 of time course) was 0.4665. For the same compound, the “Th-T fluorescence, mean of three wells” value (reading M60 of time course) was 0.4689, the “Th-T fluorescence, mean of three wells” value (reading M61 of time course) was 0.471 and the “Th-T fluorescence, mean of three wells” value (reading M62 of time course) was 0.4707. For the same compound, the “Th-T fluorescence of Aβ42 with compound, mean of three wells (Fig. 7a source data)” value (from here on “Th-T fluorescence of Aβ42 with compound”) (concentration 10, unit not given, time-course reading M129) was 1.537, the “Th-T fluorescence of Aβ42 with compound” value (concentration 10, unit not given, time-course reading M130) was 1.546 and the “Th-T fluorescence of Aβ42 with compound” value (concentration 10, unit not given, time-course reading M131) was 1.547. The “Th-T fluorescence of Aβ42 with compound” value (concentration 10, unit not given, time-course reading M132) was 1.542, the “Th-T fluorescence of Aβ42 with compound” value (concentration 10, unit not given, time-course reading M133) was 1.541 and the “Th-T fluorescence of Aβ42 with compound” value (concentration 10, unit not given, time-course reading M134) was 1.54. For the same compound, the “Th-T fluorescence of Aβ42 with compound” value (concentration 10, unit not given, time-course reading M135) was 1.5371, the “Th-T fluorescence of Aβ42 with compound” value (concentration 10, unit not given, time-course reading M136) was 1.543 and the “Th-T fluorescence of Aβ42 with compound” value (concentration 10, unit not given, time-course reading M137) was 1.53. The “Th-T fluorescence of Aβ42 with compound” value (concentration 10, unit not given, time-course reading M138) was 1.542, the “Th-T fluorescence of Aβ42 with compound” value (concentration 10, unit not given, time-course reading M139) was 1.54 and the “Th-T fluorescence of Aβ42 with compound” value (concentration 10, unit not given, time-course reading M140) was 1.544. For the same compound, the “Th-T fluorescence of Aβ42 with compound” value (concentration 10, unit not given, time-course reading M141) was 1.531, the “Th-T fluorescence of Aβ42 with compound” value (concentration 10, unit not given, time-course reading M142) was 1.539 and the “Th-T fluorescence of Aβ42 with compound” value (concentration 10, unit not given, time-course reading M143) was 1.544. For the same compound, the “Th-T fluorescence of Aβ42 with compound” value (concentration 10, unit not given, time-course reading M144) was 1.537, the “Th-T fluorescence of Aβ42 with compound” value (concentration 10, unit not given, time-course reading M145) was 1.534 and the “Th-T fluorescence of Aβ42 with compound” value (concentration 20, unit not given, time-course reading M129) was 1.025. The “Th-T fluorescence of Aβ42 with compound” value (concentration 20, unit not given, time-course reading M130) was 1.025, the “Th-T fluorescence of Aβ42 with compound” value (concentration 20, unit not given, time-course reading M131) was 1.024 and the “Th-T fluorescence of Aβ42 with compound” value (concentration 20, unit not given, time-course reading M132) was 1.024. For the same compound, the “Th-T fluorescence of Aβ42 with compound” value (concentration 20, unit not given, time-course reading M133) was 1.026, the “Th-T fluorescence of Aβ42 with compound” value (concentration 20, unit not given, time-course reading M134) was 1.029 and the “Th-T fluorescence of Aβ42 with compound” value (concentration 20, unit not given, time-course reading M135) was 1.025. The “Th-T fluorescence of Aβ42 with compound” value (concentration 20, unit not given, time-course reading M136) was 1.027, the “Th-T fluorescence of Aβ42 with compound” value (concentration 20, unit not given, time-course reading M137) was 1.027 and the “Th-T fluorescence of Aβ42 with compound” value (concentration 20, unit not given, time-course reading M138) was 1.029. For the same compound, the “Th-T fluorescence of Aβ42 with compound” value (concentration 20, unit not given, time-course reading M139) was 1.029, the “Th-T fluorescence of Aβ42 with compound” value (concentration 20, unit not given, time-course reading M140) was 1.019 and the “Th-T fluorescence of Aβ42 with compound” value (concentration 20, unit not given, time-course reading M141) was 1.021. For the same compound, the “Th-T fluorescence of Aβ42 with compound” value (concentration 20, unit not given, time-course reading M142) was 1.024, the “Th-T fluorescence of Aβ42 with compound” value (concentration 20, unit not given, time-course reading M143) was 1.022 and the “Th-T fluorescence of Aβ42 with compound” value (concentration 20, unit not given, time-course reading M144) was 1.02. For the same compound, the “Th-T fluorescence of Aβ42 with compound” value (concentration 20, unit not given, time-course reading M145) was 1.019, the “Th-T fluorescence of Aβ42 with compound” value (concentration 50, unit not given, time-course reading M129) was 0.475 and the “Th-T fluorescence of Aβ42 with compound” value (concentration 50, unit not given, time-course reading M130) was 0.4748. The “Th-T fluorescence of Aβ42 with compound” value (concentration 50, unit not given, time-course reading M131) was 0.479, the “Th-T fluorescence of Aβ42 with compound” value (concentration 50, unit not given, time-course reading M132) was 0.4776 and the “Th-T fluorescence of Aβ42 with compound” value (concentration 50, unit not given, time-course reading M133) was 0.4741. The “Th-T fluorescence of Aβ42 with compound” value (concentration 50, unit not given, time-course reading M134) was 0.4743, the “Th-T fluorescence of Aβ42 with compound” value (concentration 50, unit not given, time-course reading M135) was 0.479 and the “Th-T fluorescence of Aβ42 with compound” value (concentration 50, unit not given, time-course reading M136) was 0.4773. For the same compound, the “Th-T fluorescence of Aβ42 with compound” value (concentration 50, unit not given, time-course reading M137) was 0.4745, the “Th-T fluorescence of Aβ42 with compound” value (concentration 50, unit not given, time-course reading M138) was 0.4775 and the “Th-T fluorescence of Aβ42 with compound” value (concentration 50, unit not given, time-course reading M139) was 0.4782. The “Th-T fluorescence of Aβ42 with compound” value (concentration 50, unit not given, time-course reading M140) was 0.4767, the “Th-T fluorescence of Aβ42 with compound” value (concentration 50, unit not given, time-course reading M141) was 0.4755 and the “Th-T fluorescence of Aβ42 with compound” value (concentration 50, unit not given, time-course reading M142) was 0.4776.
